# Measured values as given in ChEMBL document CHEMBL1129830, “A convenient synthesis of pseudoceratidine and three analogs for biological evaluation” (1997).
# How the values were obtained:
# Format in all cases: functional
# [1] = tested on: Escherichia coli; test: Compound was evaluated for minimal inhibitory concentration against Escherichia coli
# [2] = tested on: Pseudomonas aeruginosa; test: Compound was evaluated for minimal inhibitory concentration against Pseudomonas aeruginosa
# [3] = tested on: Listeria monocytogenes; test: Compound was evaluated for minimal inhibitory concentration against Listeria monocytogenes
# [4] = tested on: Serratia liquefaciens; test: Compound was evaluated for minimal inhibitory concentration against Serratia liquefaciens; Growth delayed by concentrations >= 100 ug/ml
# [5] = tested on: Staphylococcus aureus; test: Compound was evaluated for minimal inhibitory concentration against Staphylococcus aureus
# [6] = tested on: Serratia liquefaciens; test: Compound was evaluated for minimal inhibitory concentration against Serratia liquefaciens
# [7] = tested on: Serratia liquefaciens; test: Compound was evaluated for minimal inhibitory concentration against Serratia liquefaciens; Growth delayed by concentrations >= 50 ug/ml and almost totally inhibited by 500 ug/ml
# [8] = tested on: Pseudomonas aeruginosa; test: Compound was evaluated for minimal inhibitory concentration against Pseudomonas aeruginosa; Growth delayed by concentrations >= 50 ug/ml and almost totally inhibited by 500 ug/ml
MIC [1],MIC [2],MIC [3],MIC [4],MIC [5],MIC [6],MIC [7],MIC [8],Compound
50 µg/mL,100 µg/mL,10 µg/mL,> 500 µg/mL,10 µg/mL,–,–,–,O=C(NCCCNCCCNC(=O)c1cc(Br)c(Br)[nH]1)c1cc(Br)c(Br)[nH]1
250 µg/mL,> 500 µg/mL,250 µg/mL,–,100 µg/mL,> 500 µg/mL,–,–,O=C(NCCCCNCCCNC(=O)c1cc(Br)c[nH]1)c1cc(Br)c[nH]1
100 µg/mL,–,50 µg/mL,–,50 µg/mL,–,> 500 µg/mL,> 500 µg/mL,O=C(NCCNCCNCCNC(=O)c1cc(Br)c(Br)[nH]1)c1cc(Br)c(Br)[nH]1
50 µg/mL,250 µg/mL,5 µg/mL,–,5 µg/mL,> 500 µg/mL,–,–,O=C(NCCCCNCCCNC(=O)c1cc(Br)c(Br)[nH]1)c1cc(Br)c(Br)[nH]1
